Molecular target: T1, PDE6 (Bos taurus, UniProt P11541+P23439)
T1 construct: from tissue; host or cells: bovine retinal rod outer segments
T1 sequence (P11541 2-856 limits assumed): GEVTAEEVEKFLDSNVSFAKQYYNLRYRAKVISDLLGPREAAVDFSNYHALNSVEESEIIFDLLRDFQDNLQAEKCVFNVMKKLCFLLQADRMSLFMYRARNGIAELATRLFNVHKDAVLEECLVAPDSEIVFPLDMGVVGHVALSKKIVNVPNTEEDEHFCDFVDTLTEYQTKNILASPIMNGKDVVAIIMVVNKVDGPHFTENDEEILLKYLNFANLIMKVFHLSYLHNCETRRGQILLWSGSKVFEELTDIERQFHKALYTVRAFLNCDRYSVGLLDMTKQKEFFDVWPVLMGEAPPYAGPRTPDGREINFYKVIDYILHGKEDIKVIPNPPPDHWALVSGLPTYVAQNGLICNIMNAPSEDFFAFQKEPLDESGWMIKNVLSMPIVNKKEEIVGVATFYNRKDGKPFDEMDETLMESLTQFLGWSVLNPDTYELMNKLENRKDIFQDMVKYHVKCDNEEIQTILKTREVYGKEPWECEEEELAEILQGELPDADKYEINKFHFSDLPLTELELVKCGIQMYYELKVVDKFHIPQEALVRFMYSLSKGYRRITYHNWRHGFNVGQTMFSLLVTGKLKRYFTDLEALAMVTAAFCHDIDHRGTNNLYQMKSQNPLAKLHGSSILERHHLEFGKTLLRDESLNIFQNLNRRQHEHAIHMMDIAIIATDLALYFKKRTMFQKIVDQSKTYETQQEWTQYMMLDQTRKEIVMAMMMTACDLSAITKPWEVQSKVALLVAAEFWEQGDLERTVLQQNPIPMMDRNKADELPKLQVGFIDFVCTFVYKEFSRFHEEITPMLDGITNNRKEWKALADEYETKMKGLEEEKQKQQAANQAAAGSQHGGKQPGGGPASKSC
T1 sequence (P23439 2-850 limits assumed): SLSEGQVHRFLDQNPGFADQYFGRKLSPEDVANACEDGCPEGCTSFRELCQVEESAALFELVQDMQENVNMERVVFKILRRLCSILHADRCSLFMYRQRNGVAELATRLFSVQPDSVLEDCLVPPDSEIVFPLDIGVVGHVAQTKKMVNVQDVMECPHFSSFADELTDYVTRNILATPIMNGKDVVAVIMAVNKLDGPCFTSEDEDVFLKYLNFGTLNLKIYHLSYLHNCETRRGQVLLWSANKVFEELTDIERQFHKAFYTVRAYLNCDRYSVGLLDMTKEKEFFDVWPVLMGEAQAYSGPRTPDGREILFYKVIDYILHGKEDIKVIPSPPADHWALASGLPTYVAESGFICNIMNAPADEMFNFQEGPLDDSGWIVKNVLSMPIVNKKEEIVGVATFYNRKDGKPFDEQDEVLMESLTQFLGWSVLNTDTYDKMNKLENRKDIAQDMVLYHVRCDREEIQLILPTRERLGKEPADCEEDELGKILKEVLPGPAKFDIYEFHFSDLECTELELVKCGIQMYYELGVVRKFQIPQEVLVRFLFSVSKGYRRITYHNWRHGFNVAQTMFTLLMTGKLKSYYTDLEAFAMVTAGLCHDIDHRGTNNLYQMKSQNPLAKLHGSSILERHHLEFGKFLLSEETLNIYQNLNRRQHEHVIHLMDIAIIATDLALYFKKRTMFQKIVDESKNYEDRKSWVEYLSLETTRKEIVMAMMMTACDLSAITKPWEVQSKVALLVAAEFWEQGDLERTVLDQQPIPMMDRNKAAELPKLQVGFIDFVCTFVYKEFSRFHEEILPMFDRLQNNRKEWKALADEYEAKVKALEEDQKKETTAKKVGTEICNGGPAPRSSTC
Experiment: PDE6 enzyme inhibition assay
Type: biochemical, bovine
Conditions: 200 μM, 25° C., 1% DMSO vehicle

| Compound | inhibition of PDE6 |
| --- | --- |
| Cn1cc([S@+]([O-])CCl)c(=O)c2ccc(F)cc21 (single isomer, unassigned) [(+)-enantiomer of monochloroflosequinan] | greater than 50% |
| Cn1cc([S@@+]([O-])CCl)c(=O)c2ccc(F)cc21 (single isomer, unassigned) [(−)-enantiomer of monochloroflosequinan] | greater than 50% |

Source: patent US7041677B2, “Use of monochloroflosequinan in the treatment of sexual dysfunction” (R.T. Alamo Ventures I, LLC, priority 2002, dated 2006)
